For one data set, the system named is Aphis gossypii. In words: Aphis gossypii - spray test (APHIGO S), cotton plants. The conditions noted are these: 144 h, 6 dat, read-out: % efficacy. Format: in vivo.
Data set [1] can be described thus: log P by HPLC on reversed-phase (C18) columns, OECD Guideline 117. Format: physicochemical. Particulars: reversed-phase (C18) HPLC column. Summed up: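 Reversed-phase C18 HPLC per OECD 117, LC-MS with a linear 10% to 95% acetonitrile gradient. Acidic method at pH 2.7 with 0.1% formic acid; neutral method at pH 7.8 with 0.001 M ammonium hydrogencarbonate.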
Data set [2] has as its system Myzus persicae. In words: Myzus persicae - spray test (MYZUPE S), bell pepper plants. Format: in vivo. Particulars: 144 h, 6 dat, read-out: % efficacy. On the procedure:
Myzus persicae—Spray Test (MYZUPE S)
Solvent: 14 parts by weight of dimethylformamide
Emulsifier: alkylaryl polyglycol ether
To produce a suitable active compound preparation, 1 part by weight of active compound is dissolved with the specified parts by weight of solvent and made up with water containing an emulsifier concentration of 1000 ppm until the desired concentration is attained. To produce further test concentrations, the formulation is diluted with emulsifier-containing water. If the addition of ammonium salts or/and penetrants is required, these are each added in a concentration of 1000 ppm to the formulation solution.
Bell pepper plants (Capsicum annuum) severely infested with the green peach aphid (Myzus persicae) are treated by spraying with the active ingredient formulation in the desired concentration.
After the desired time, the kill in % is determined. 100% means that all the animals have been killed; 0% means that no animals have been killed.

In data set [3] the test system is Myzus persicae. The data set can be described thus: Myzus persicae - spray test (Chinese cabbage leaf discs). Format: in vivo. The conditions noted are these: Myzus persicae, foliar; application rate 500 g/ha, after 5-6 days; read-out: efficacy. The method in brief: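 Chinese cabbage leaf discs carrying all aphid stages were sprayed with compound dissolved in acetone/dimethylformamide and diluted in water with 1000 ppm alkylaryl polyglycol ether emulsifier. Efficacy was recorded after 5-6 days as % aphids killed (100% = all, 0% = none).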

Data set [4] has as its system Myzus persicae. The data set can be described thus: Myzus persicae - drench test (MYZUPE D), Savoy cabbage in soil. Format: in vivo. Particulars: 240 h, 10 dat, read-out: % efficacy.
Data set [5] has as its system Myzus persicae. In words: Myzus persicae - spray test (MYZUPE), Chinese cabbage leaf discs. Format: in vivo. Particulars: foliar, 120 h, 5 dat; for Emax at 20 g/ha / percent efficacy (aphid mortality) at 20 g/ha: 20 g of ai/ha; for Emax at 20 g/ha: read-out: % efficacy; for percent efficacy (aphid mortality) at 100 g/ha: 100 g of ai/ha.
Data set [6] relates to Myzus persicae. In words: Myzus persicae - oral test. Format: in vivo. Particulars: Myzus persicae, po, 120 h; application rate 20 ppm, after 5 days; read-out: efficacy. Summed up: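 Aphid feeding test: compound dissolved in acetone, diluted with water and mixed with IPL41 insect medium plus sugar, offered through parafilm to a mixed population of green peach aphids. Mortality scored after 5 days as % efficacy (100% = all aphids dead, 0% = none dead).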

Data set [7] relates to Myzus persicae. In words: Myzus persicae - oral test (MYZUPE O). Format: in vivo. Particulars: 120 h, 5 dat, read-out: % efficacy.
Setting [8] is: acidic range, pH 2.7, 0.1% aqueous formic acid/acetonitrile, read-out: logP[a].
The mark [9] stands for this setting: neutral range, pH 7.8, aqueous ammonium hydrogencarbonate/acetonitrile, read-out: logP[n].

Like-named read-outs stand apart in the source and are kept apart here.

Consider `CCN(C(=O)c1cnc(CSC(C)C)n1C)c1cccnc1` [Example I-1-50], for which the percent kill (mortality) of aphids at a fixed dose at 0.8 ppm with Aphis gossypii (0.8 ppm) amounted to 90%. In addition, the Emax at 4 ppm worked out at 95% in the data set on Aphis gossypii (4 ppm) and 100% with Myzus persicae [7]. The chromatographic logP in data set [1] (setting [8]) was 1.1; in data set [1] (setting [9]), 1.73. Besides, the figures for the Emax at 0.16 ppm in the data set on Myzus persicae [2] and in the data set on Myzus persicae [4] were 100% and 98%, respectively. Further, the pest or weed control at 500 g/ha in the data set on Myzus persicae [3] was found to be 90%. For the same compound, the Emax at 20 g/ha in the data set on Myzus persicae [5] came to 70%. The same compound registered a percent efficacy (aphid mortality) at 100 g/ha in the data set on Myzus persicae [5] of 90%. Besides, the pest or weed control at 20 ppm with Myzus persicae [6] came to 100%.
As to `CCN(C(=O)c1cnc(CSCC(C)C)n1C)c1cccnc1` [Example I-1-51], the Emax at 0.8 ppm with Aphis gossypii (0.8 ppm) came to 99%. In addition, the Emax at 4 ppm in the data set with Aphis gossypii (4 ppm) is 99%; in the data set on Myzus persicae [7], 100%. Moreover, the values for the chromatographic logP in data set [1] (setting [8]) and in data set [1] (setting [9]) were 1.32 and 2.05, respectively. Besides, the Emax at 0.16 ppm came to 99% with Myzus persicae [2] and 98% in the data set on Myzus persicae [4]. Besides, in the data set on Myzus persicae [3], the pest or weed control at 500 g/ha was found to be 100%. This compound came in with a percent efficacy (aphid mortality) at 20 g/ha with Myzus persicae [5] of 90%. Moreover, the percent efficacy (aphid mortality) at 100 g/ha with Myzus persicae [5] was determined as 90%. The pest or weed control at 20 ppm with Myzus persicae [6] worked out at 100%.
Regarding `CCN(C(=O)c1cnc(CSC(C)(C)C)n1C)c1cccnc1` [Example I-1-52], the percent kill (mortality) of aphids at a fixed dose at 4 ppm in the data set with Aphis gossypii (4 ppm) worked out at 90%. Moreover, the results for the chromatographic logP in data set [1] (setting [8]) and in data set [1] (setting [9]) were 1.29 and 1.93, respectively. Moreover, the Emax at 0.16 ppm was 99% in the data set on Myzus persicae [2] and 95% with Myzus persicae [4]. Besides, in the data set on Myzus persicae [3], the pest or weed control at 500 g/ha stood at 90%. Besides, the Emax at 20 g/ha in the data set on Myzus persicae [5] amounted to 70%. The compound further showed a percent efficacy (aphid mortality) at 100 g/ha in the data set with Myzus persicae [5] of 90%. The pest or weed control at 20 ppm in the data set on Myzus persicae [6] worked out at 100%. Besides, in the data set on Myzus persicae [7], the Emax at 4 ppm worked out at 100%.
With `CCN(C(=O)c1cnc(CSCC2CC2)n1C)c1cccnc1` [Example I-1-53], the percent kill (mortality) of aphids at a fixed dose at 0.8 ppm with Aphis gossypii (0.8 ppm) was 98%. In addition, the Emax at 4 ppm with Aphis gossypii (4 ppm) stood at 97%; in the data set with Myzus persicae [7], 100%. The chromatographic logP in data set [1] (setting [8]) was determined as 1.19; in data set [1] (setting [9]) it was 1.82. Moreover, the Emax at 0.16 ppm in the data set on Myzus persicae [2] was 99%; with Myzus persicae [4], 90%. In the data set on Myzus persicae [3], the pest or weed control at 500 g/ha amounted to 100%. This compound also returned a percent efficacy (aphid mortality) at 20 g/ha in the data set with Myzus persicae [5] of 100%. The same compound displayed a percent efficacy (aphid mortality) at 100 g/ha in the data set on Myzus persicae [5] of 100%. Also, the pest or weed control at 20 ppm with Myzus persicae [6] was determined as 100%.
With `CCN(C(=O)c1cnc(CSCC(C)(C)C)n1C)c1cccnc1` [Example I-1-54], the percent kill (mortality) of aphids at a fixed dose at 0.8 ppm with Aphis gossypii (0.8 ppm) stood at 90%. Besides, the Emax at 4 ppm in the data set on Aphis gossypii (4 ppm) came out at 95%; in the data set with Myzus persicae [7], 100%. Also, the chromatographic logP was found to be 1.68 in data set [1] (setting [8]) and 2.34 in data set [1] (setting [9]). Further, the Emax at 0.16 ppm in the data set with Myzus persicae [2] came out at 99%; in the data set with Myzus persicae [4] it was 90%. Moreover, in the data set with Myzus persicae [3], the pest or weed control at 500 g/ha amounted to 90%. The percent efficacy (aphid mortality) at 20 g/ha with Myzus persicae [5] turned out to be 90%. In addition, in the data set with Myzus persicae [5], the percent efficacy (aphid mortality) at 100 g/ha is 90%. In addition, the pest or weed control at 20 ppm in the data set with Myzus persicae [6] came to 100%.

The record behind these values is patent US10689365B2, “Substituted 2-alkylimidazolylcarboxamides as pesticides” (Bayer CropScience Aktiengesellschaft, priority 2016, dated 2020).
